In this experiment the test system is Syk mutants (Arg 68, Glu 121, Glu 155). The experiment in a line: Binding of G4G11 with Syk mutants in the ADA method. Details: species or system murine. As to conditions: 5 μM of C-13. The source says:
On the basis of this information and the known 3D structure of the peptide complex formed by the SH2 domains of Syk and ITAM motifs^17, the inventors used computing approaches to locate a putative binding site for C-13. A candidate cavity comprising the residues Ser 9, Gln 43, Phe 51, Ile 66, Glu 67, Arg 68, Glu 69, Leu 70, Asn 71, Gly 72, Thr 73, Tyr 74, Ala 75, Glu 121 and Glu 155 of human Syk protein (see FIG. 8A, SEQ ID No. 1) and situated in the vicinity of the G4G11 epitope was identified (FIG. 1C). A structural analysis specified that the residues Ser 9, Gln 43, Phe 51, Arg 68, Glu 121 and Glu 155 could be involved in the binding of the ligand, and could be mutated without impairing the 3D structure of the protein. To validate the cavity in more detail, these six amino acids were mutated individually and the Syk mutants were subjected to the ADA test.
• 1) Chemical products and antibodies. […] The binding of G4G11 with Syk was assessed by adding the 9E10 monoclonal antibody conjugated with HRP detecting the amino acid sequence EQKLISEEDLN of human c-myc protein located at the C-terminal end of the scFv fragment. To generate Syk mutants, targeted mutagenesis was used on GST:Syk 6-242 protein and the binding of G4G11 with the mutants was assessed in the presence of 5 μM of C-13. • 3) Cells, culture conditions and functional tests. […]

For `COC(=O)c1ccccc1-c1ccc(/C=C2/SC(=S)N(Cc3ccccc3)C2=O)o1` [Molecule C-13, methyl 2-{5-[(3-benzyl-4-oxo-2-thioxo-1,3-thiazolidin-5-ylidene)methyl]-2-furyl}benzoate], the “effect of mutation of Arg 68, Glu 121 and Glu 155 of Syk on inhibition of G4G11 binding” value is given as “cancelled the inhibition”.

For the origin of these results see patent US9504676B2, “Molecules inhibiting a metabolic pathway involving the Syk protein tyrosine kinase and method for identifying said molecules” (CENTRE NATIONAL DE LA RECHERCHE SCIENTIFIQUE, priority 2008, dated 2016).
